According to ChEMBL document CHEMBL4400558, “Optimization of Blood-Brain Barrier Permeability with Potent and Selective Human Neuronal Nitric Oxide Synthase Inhibitors Having a 2-Aminopyridine Scaffold” (J Med Chem, 2019):

Target: Nitric oxide synthase 1 (Homo sapiens, UniProt P29475)
Sequence (P29475 whole entry): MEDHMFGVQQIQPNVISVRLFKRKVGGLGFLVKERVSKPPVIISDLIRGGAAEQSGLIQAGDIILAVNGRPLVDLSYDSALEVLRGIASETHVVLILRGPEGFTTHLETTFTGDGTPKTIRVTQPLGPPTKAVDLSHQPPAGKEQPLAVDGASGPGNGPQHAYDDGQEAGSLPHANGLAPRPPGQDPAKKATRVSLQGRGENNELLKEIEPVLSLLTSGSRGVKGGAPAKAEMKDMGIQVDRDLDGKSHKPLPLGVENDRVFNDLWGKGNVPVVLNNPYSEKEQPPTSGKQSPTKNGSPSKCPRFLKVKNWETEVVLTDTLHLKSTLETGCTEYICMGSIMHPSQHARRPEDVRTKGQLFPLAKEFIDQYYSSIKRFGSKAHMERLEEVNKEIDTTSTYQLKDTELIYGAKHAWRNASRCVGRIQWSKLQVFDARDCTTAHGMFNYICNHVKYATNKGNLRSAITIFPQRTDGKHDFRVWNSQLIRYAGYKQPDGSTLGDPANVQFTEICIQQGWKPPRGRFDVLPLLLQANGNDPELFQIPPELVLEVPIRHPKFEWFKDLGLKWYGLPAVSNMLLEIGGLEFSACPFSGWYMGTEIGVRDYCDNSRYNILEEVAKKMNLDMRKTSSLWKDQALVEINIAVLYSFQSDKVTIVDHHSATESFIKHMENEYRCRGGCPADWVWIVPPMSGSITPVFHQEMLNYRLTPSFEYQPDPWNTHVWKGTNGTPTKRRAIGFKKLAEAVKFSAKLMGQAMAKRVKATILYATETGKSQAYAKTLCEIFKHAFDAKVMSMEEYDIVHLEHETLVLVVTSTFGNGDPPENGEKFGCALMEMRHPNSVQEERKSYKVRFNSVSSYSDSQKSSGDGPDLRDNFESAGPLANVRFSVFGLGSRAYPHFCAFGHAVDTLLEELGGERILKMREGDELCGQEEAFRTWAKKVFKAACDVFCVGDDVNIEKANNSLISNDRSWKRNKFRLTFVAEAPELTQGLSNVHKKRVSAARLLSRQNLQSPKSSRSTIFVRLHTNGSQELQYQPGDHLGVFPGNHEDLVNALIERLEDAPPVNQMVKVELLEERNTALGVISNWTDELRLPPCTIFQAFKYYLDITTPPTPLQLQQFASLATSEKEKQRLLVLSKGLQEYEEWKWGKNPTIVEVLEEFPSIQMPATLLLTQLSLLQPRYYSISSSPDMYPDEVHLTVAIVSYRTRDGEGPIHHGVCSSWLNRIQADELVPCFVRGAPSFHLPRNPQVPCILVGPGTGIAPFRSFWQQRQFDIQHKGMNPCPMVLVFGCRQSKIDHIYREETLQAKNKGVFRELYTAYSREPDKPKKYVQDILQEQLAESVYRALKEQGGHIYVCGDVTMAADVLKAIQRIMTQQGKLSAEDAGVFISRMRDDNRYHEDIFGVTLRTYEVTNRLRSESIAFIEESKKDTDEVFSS

Cc1cc(N)nc(CCc2cc(CCCN(C)C)cc(F)c2F)c1
Ki: 29 nM
